According to patent publication US10350231B2, “Use of cladribine for treating autoimmune inflammatory disease” (Chord Therapeutics S.a.r.l., priority 2014, dated 2019):
“Also recorded” adds a separate entry of the source.

Columns and labels:
[1] = test system: human lymphocytes; conditions: phosphorylation by CK blocked, lymphocyte death does not occur; cited from earlier work
[2] = target: A2A (adenosine receptor class 2a) (Homo sapiens, UniProt P29274); conditions: cited from earlier work
[3] = test system: T lymphocytes from NMO patients; experiment: Stimulated (anti-CD3/anti-CD28) cytokine secretion by T lymphocytes from NMO patients; assay type: cell-based, human; conditions: cladribine 1×10^−9M to 1×10^−4M, supernatants e.g. 24 hours, compared with healthy donors
From the text: Using the methods described in Laugel B. et al., J. Neuroimmunol.; (2011); 240-241; 52-57 peripheral blood mononuclear cells (PBMCs) are first isolated from blood obtained from healthy donors and NMO patients, for example by ficoll gradient centrifugation. T-lymphocytes are further purified from these PBMCs, by for example magnetic bead separation using a pan-T cell reagents, or CD4 reagents. The purified lymphocytes are maintained in culture using standard methods and reagents, for example RPMI-1640 growth medium.
To determine the effect of cladribine on stimulated cytokine secretion by T lymphocytes from NMO patients, identical numbers of purified lymphocytes purified from both healthy donor and NMO patients are pre-incubated for less than one hour in medium containing one of a number of cladribine concentrations, ranging from for example one nanomolar to one hundred micromolar (1×10^−9M to 1×10^−4M), or without added cladribine. Cells are then transferred, with their cladribine-containing or control medium, to the wells of culture plates coated with anti-CD3 antibody, and soluble anti-CD28 antibody is added. Secreted cytokines in culture supernatants collected after, for example, 24 hours, are determined by one of several standard methods including bead-based cytometric cytokine assay and enzyme-linked immunosorbent assay. […]

[4] = test system: neuromyelitis optica (NMO) patient; experiment: Case report of off-label treatment of NMO patient with cladribine; assay type: in vivo, human
Experimental: A person presented with acute visual symptoms and optic neuritis with normal head MRI. Episodic visual symptoms recurred with increasing severity up to complete blindness in one eye and episodes of deterioration in the other. Some response to methylprednisolone was noted. The diagnostic test for NMO-IgG (ELISA) was positive and brain MRI had no focal lesions.
20 mg of cladribine were administered subcutaneously to the patient on each of five dosing days, with one month or more separating the dosing days. On a dosing day, two vials were used each containing 10 ml of a solution of cladribine as shown in Example 2. Eight subcutaneous sites were used, each receiving an injection of 2.5 ml.
At the end of nine months blindness was complete bilaterally but motor and sensory functions were normal. […] After 2 years the patient was admitted with motor, sensory and autonomic symptoms. Based on new symptoms, abnormalities on spinal cord MRI and the previous NMO-IgG test the diagnosis was confirmed as neuromyelitis optica. After 3 months there was partial improvement but remaining mild paraparesis.
Prior to cladribine treatment this patient experienced five episodes of worsening over four years (estimated annual relapse rate of 1.46). The intervening remission periods were 13, 15, 6 and 6 months. From initiation of an 8-month course of cladribine treatment they experienced 34 months of stable condition without reported relapses, followed by subsequent deterioration and other treatments.

[5] = test system: IgM associated inflammatory peripheral neuropathy patient; conditions: intravenous infusion, two courses of cladribine, cited from earlier work
[6] = test system: T-lymphocytes from NMO patients; experiment: In vitro viability response of lymphocytes derived from NMO patients to cladribine; assay type: cell-based, human; conditions: cladribine 1×10^−9M to 1×10^−4M, e.g. four days; with or without anti-CD3/anti-CD28; compared with healthy donors
From the text: Using the methods described in Laugel B. et al., J. Neuroimmunol.; (2011); 240-241; 52-57 peripheral blood mononuclear cells (PBMCs) are first isolated from blood obtained from healthy donors and NMO patients, for example by ficoll gradient centrifugation. T-lymphocytes are further purified from these PBMCs, by for example magnetic bead separation using a pan-T cell reagents, or CD4 reagents. […] To determine the cells' viability response to cladribine, identical numbers of lymphocytes purified from both healthy donor and NMO patients are cultured with one of a number of cladribine concentrations, ranging from for example one nanomolar to one hundred micromolar (1×10^−9M to 1×10^−4M), or without any cladribine. After a period of several days, for example four days, the fraction of live cells is determined, for example by annexin V staining or trypan blue staining. This experiment is done either under stimulated conditions (that is, with the addition of anti-CD3 and anti-CD28 antibodies in all cultures, as below) or without these stimulating antibodies.

[7] = test system: NMO patients; conditions: cited from earlier work

A2A (adenosine receptor class 2a), sequence (P29274 whole entry): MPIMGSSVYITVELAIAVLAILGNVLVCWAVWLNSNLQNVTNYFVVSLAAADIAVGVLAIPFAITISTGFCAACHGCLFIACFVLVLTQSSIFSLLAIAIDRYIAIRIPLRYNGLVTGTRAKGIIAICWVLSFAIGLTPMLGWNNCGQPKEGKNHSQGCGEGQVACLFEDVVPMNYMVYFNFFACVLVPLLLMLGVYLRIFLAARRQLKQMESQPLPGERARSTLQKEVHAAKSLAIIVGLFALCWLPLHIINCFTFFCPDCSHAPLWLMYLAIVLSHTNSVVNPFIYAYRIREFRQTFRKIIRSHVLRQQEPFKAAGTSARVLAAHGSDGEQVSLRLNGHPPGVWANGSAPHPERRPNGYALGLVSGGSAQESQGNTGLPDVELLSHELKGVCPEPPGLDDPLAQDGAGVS

Question: With `Nc1nc(Cl)nc2c1ncn2[C@H]1C[C@H](O)[C@@H](CO)O1` [cladribine, 2-chloro-2′-deoxyadenosine] as the compound, how does the induced cytokine production [1] read?
Answer: decreased

Question: What about the “affinity at A2A receptors” value [2] of the same compound?
Answer: binds with high affinity

Question: And the “secretion of cytokines by lymphocytes from NMO patients” value [3]?
Answer: inhibited by cladribine in a manner and to a degree similar to the inhibition seen in lymphocytes from healthy donors

Question: And the “disease course after cladribine treatment” value ([4]; one NMO patient, single course 100 mg s.c., no further immunosuppressant treatment)?
Answer: two years without noted deterioration; also recorded: stabilization of the disease course for over two years

Question: What about the “adverse events attributed to cladribine” value ([4]; one NMO patient, total 100 mg cladribine s.c.) of the same compound?
Answer: No adverse events attributed to cladribine were reported

Question: What about the “stable condition without reported relapses” value ([4]; one NMO patient, total 100 mg cladribine s.c., from initiation of an 8-month course) of the same compound?
Answer: 34 months

Question: What about the “period of beneficial effects on the disease without retreatment” value ([4]; short period of treatment (several weeks)) of the same compound?
Answer: over 18 months

Question: What about the IgM antibody levels [5] of the same compound?
Answer: IgM levels declined slowly over a period of more than one year

Question: What about the symptoms ([5]; maintained for several years) of the same compound?
Answer: symptomatic improvement

Question: And the “viability (fraction of live cells) of lymphocytes from NMO patients” value [6]?
Answer: die over several days in a manner and to an extent similar to those purified from healthy donors

Question: For `O=C1c2c(O)ccc(O)c2C(=O)c2c(NCCNCCO)ccc(NCCNCCO)c21` [mitoxantrone], which “disease course under mitoxantrone” value ([4]; same patient, after relapse following cladribine, impaired walking, neurogenic bladder, blindness) is on record?
Answer: progressive deterioration

Question: With Glatiramer acetate as the compound, how does the “effect on NMO” value [7] read?
Answer: has not been found to be effective
